One assay concerns Aβ-infused mice. Briefly: Contextual and cued fear conditioning in Aβ42-infused mice (TSA). In kind it is in vivo. From the text: HDAC inhibition rescues the defect in associative memory by Aβ elevation. The APP and PS1 transgenes could affect neuronal function through different mechanisms [B23, B24] (each herein incorporated by reference in its entirety), including direct effects by Aβ. Full-length APP and its cleavage products could differently impact H4 acetylation. To separate Aβ effects from other effects of APP and PS1 overexpression, we next determined whether Aβ per se is responsible for the deficit in H4 acetylation observed in our studies on transgenic mice. […] (each herein incorporated by reference in its entirety), we applied a preparation containing oligomeric Aβ42 (200 nM in a volume of […], slowly over 1 min) into dorsal hippocampi (FIG. 24A-B), 15 min prior to training for fear conditioning, with injection of TSA or vehicle (2 mg/kg body weight, 2 hrs prior to training, i.p.). Infusion occurred 5-7 days after implanting cannulas onto dorsal hippocampi. We found no difference in the freezing behavior among the 4 groups of mice during the training phase of the fear conditioning (F3,41=0.04188, p=0.9884, n=8-14/group; FIG. 24C). Twenty-four hours later, freezing behavior was decreased in Aβ-infused mice compared to vehicle-infused mice in the analysis of the contextual learning (F3,41=3.619, p=0.0209, n=8-14/group; FIG. 24C). Freezing in Aβ-infused mice was about 25% that of vehicle-infused mice [Aβ-infused mice: 8.580±2.119% vs. vehicle-infused mice: 31.46±5.373% n=12 and 11 males, respectively; t=3.147, p=0.0049; FIG. 24C].

The next assay deals with acetylated H4. Briefly: Western blot of hippocampal acetylated H4 after fear conditioning (TSA). In kind it is in vivo, mice. Here is the method: We will also test if defects seen in APP/PS1 mice, compared to WT littermates, are due to epigenetic effects. […] (each herein incorporated by reference in its entirety). Acetylation of H4 in hippocampus from WT and APP/PS1 animals was measured. Vehicle control solution was administered i.p. 2 hrs before FC training. 1 hr after contextual FC, the APP/PS1 and WT mice were euthanized and hippocampi were extracted. […] Whether HDAC inhibition might rescue the histone 4 acetylation levels defect observed in APP/PS1 mice was also tested. Injection of TSA (2 μg/g body weight; i.p) 2 hours prior to contextual fear conditioning enhanced H4 acetylation of APP/PS1 mice (FIG. 22). Without being bound by theory, AD is likely to be a disease with an epigenetic motif and HDAC inhibitors can elevate decreased levels of histone 4 in an AD mouse model.
APP/PS1 mice display a reduced endogenous level of histone 4 acetylation in response to a learning task. Given that HDAC inhibitors are known to acetylate other molecules besides histones [B49] […] We measured acetylation of H4 in hippocampus from 3 to 4 month old wild-type (WT) and APP/PS1 animals, after training for fear conditioning. […]
For orientation: Immunoblotting shows a protein as a band on a membrane.

Another assay deals with T1, CBP (Homo sapiens, UniProt Q92793).
T1 construct: we will use the catalytic domain of human CBP, PCAF, p300 and GCNS (Enzo Life Sci., USA); purchased Enzo Life Sci
T1 sequence (Q92793 1323-1700 limits assumed): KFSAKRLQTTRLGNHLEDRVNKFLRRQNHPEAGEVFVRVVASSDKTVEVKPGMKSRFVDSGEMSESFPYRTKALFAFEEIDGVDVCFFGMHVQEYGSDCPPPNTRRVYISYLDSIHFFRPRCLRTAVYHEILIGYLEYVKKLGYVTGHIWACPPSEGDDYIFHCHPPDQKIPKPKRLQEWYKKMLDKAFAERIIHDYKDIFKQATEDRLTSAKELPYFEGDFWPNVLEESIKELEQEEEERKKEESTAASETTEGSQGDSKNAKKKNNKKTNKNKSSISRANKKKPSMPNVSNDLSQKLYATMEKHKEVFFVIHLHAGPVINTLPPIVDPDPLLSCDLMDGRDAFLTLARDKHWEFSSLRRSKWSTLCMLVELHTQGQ
Briefly: In vitro HAT activation assay, CBP. The class given is biochemical. From the text:
Compounds will be tested for HAT activator activity first, using the HAT Assay kit from Active Motif (USA, CA). For this assay, we will use the catalytic domain of human CBP, PCAF, p300 and GCNS (Enzo Life Sci., USA). The catalytic domains for the remaining HATs will be produced using New England Biolabs K. lactis Protein Expression Kit. […] When assayed against all other HATs, they must show at least a 50 fold greater potency towards CBP and/or PCAF.

The next assay concerns APP/PS1 mice. Briefly: RAWM and fear conditioning in APP/PS1 mice (YF2). The class given is in vivo. The source says: Without being bound by theory, given that these experiments were obtained with a synthetic preparation of Aβ42, it is difficult to know if this is the same as Aβ that causes synaptic dysfunction in AD brains. Thus, we validated these experiments in an Aβ-depositing mouse model, the APP/PS1 mouse^[P35] (herein incorporated by reference in its entirety). These mice have been well characterized with respect to AD pathology^[P34-38] (each herein incorporated by reference in its entirety). They start to show synaptic and memory impairment as early as 3 months of age^[P34] (herein incorporated by reference in its entirety). Transgenic mice with a double mutation APP […]/PS1(M146L) (line 6.2) start to develop large plaques in cortex and hippocampus at the age of 8-10 weeks. They have a reduction in LTP by 3 months of age together with impairment of contextual fear memory and spatial working memory.

Entries after “also recorded” stand apart in the source; their conditions may differ.

By EC50 is commonly meant the concentration giving half of the maximal effect. The low end stands for a more potent agent, the high end for a less potent agent.

As for `CC(/C=C/C(=O)NO)=C\[C@@H](C)C(=O)c1ccc(N(C)C)cc1` [TSA, trichostatin A], the “freezing time relative to Aβ-infused mice” value in the assay with Aβ-infused mice (Aβ-infused mice injected with TSA) was “about 300%”. Further, the “deficit in freezing responses in Aβ-infused mice” value with Aβ-infused mice (TSA i.p. 2 hrs before training) is “ameliorates”. Further, the “freezing, contextual fear conditioning 24 hrs after training” value amounted to 26.17±4.747% in the assay on Aβ-infused mice (TSA+Aβ treated mice, TSA 2 mg/kg i.p. 2 hrs prior to training, Aβ42 200 nM) and 27.01±7.246% with Aβ-infused mice (TSA-treated, vehicle-infused mice). The “cued fear conditioning, freezing among the 4 groups” value with Aβ-infused mice (pre-CS and CS) is “did not find a difference”. Also, in the assay with acetylated H4 (TSA 2 mg/kg i.p. 2 hours prior to fear conditioning, 1 hour after training), the “H4 acetylation in hippocampus of APP/PS1 mice” value is “enhanced; also recorded: rescued; also recorded: enhancement”. Also, in the assay on acetylated H4 (TSA 2 mg/kg i.p., vs vehicle-treated WT), the “H4 acetylation levels in WT mice” value is recorded as “increased”.

On CBP, `CCOc1cccc(OCCN(C)C)c1C(=O)Nc1ccc(Cl)c(C(F)(F)F)c1` [YF2] showed an EC50 of 2700 nM. The “reference memory defect (RAWM)” value in the assay on APP/PS1 mice (APP/PS1 mice, 20 mg/Kg i.p. 30 min before 1st and 2nd group of tests, 20 mg/kg) is “ameliorates; also recorded: rescued”. The “contextual fear memory deficit” value in the assay with APP/PS1 mice (APP/PS1 mice, 20 mg/Kg i.p. 30 min before training for FC, 20 mg/kg) was “ameliorates”. For the same molecule, the “memory in WT mice” value in the assay on APP/PS1 mice (WT littermates, 20 mg/Kg i.p.) is reported as “without affecting”.
